Experimental data from US9365576B2, “Pyrrolopyrrolidinone compounds” (Novartis AG, priority 2012, dated 2016).

The compounds below were run against human MDM2 protein (amino acids 2-188) (Homo sapiens (Human), UniProt Q00987) (assay: TR-FRET assay, p53-MDM2 Assay 2 (modified)). Conditions: TR-FRET; 0.1 nM MDM2, 0.1 nM Europium labeled streptavidin, Tecan genios Pro reader; read-out: IC50 p53-MDM2 Assay 2.
Format: binding
Procedure, shortened: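 IC50 values were curve-fitted from the time-resolved 665/620 nm emission ratio after 340 nm excitation. The assay combined 0.625 nM europium-streptavidin donor with 1.25 nM C-terminally biotinylated MDM2 2–188 (15 min, RT), followed by 15 min with 10 nM Cy5-labeled p53 18–26 acceptor peptide.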

human MDM2 protein (amino acids 2-188), sequence (Q00987 2-188): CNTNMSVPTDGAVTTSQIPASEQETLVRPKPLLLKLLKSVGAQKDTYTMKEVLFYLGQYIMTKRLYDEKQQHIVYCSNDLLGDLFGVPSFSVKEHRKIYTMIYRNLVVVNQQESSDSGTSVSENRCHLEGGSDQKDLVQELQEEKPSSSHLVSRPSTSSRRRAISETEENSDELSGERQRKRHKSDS

Going from COc1ncc(-c2cc3c(n2C(C)C)C(c2ccc(Cl)cc2)N(c2cc(Cl)ccc2C#N)C3=O)c(OC)n1 (stereo not shown) [Example 98, 4-Chloro-2-[6-(4-chloro-phenyl)-2-(2,4-dimethoxy-pyrimidin-5-yl)-1-isopropyl-4-oxo-4,6-dihydro-1H-pyrrolo[3,4-b]pyrrol-5-yl]-benzonitrile] to COc1nc(N)ncc1-c1cc2c(n1C(C)C)C(c1ccc(Cl)cc1)N(c1cc(Cl)ccc1C#N)C2=O (stereo not shown) [Example 99, 2-[2-(2-Amino-4-methoxy-pyrimidin-5-yl)-6-(4-chloro-phenyl)-1-isopropyl-4-oxo-4,6-dihydro-1H-pyrrolo[3,4-b]pyrrol-5-yl]-4-chloro-benzonitrile], the IC50 rises from 0.316 nM to 1.44 nM (4.6-fold). The first is the more potent here.

First: COc1nc(N(C)C)ncc1-c1cc2c(n1C(C)C)C(c1ccc(Cl)cc1)N(c1cc(Cl)ccc1C#N)C2=O (stereo not shown) [Example 100, 4-Chloro-2-[6-(4-chloro-phenyl)-2-(2-dimethylamino-4-methoxy-pyrimidin-5-yl)-1-isopropyl-4-oxo-4,6-dihydro-1H-pyrrolo[3,4-b]pyrrol-5-yl]-benzonitrile]
Second: COc1nc(N(C)C)ncc1-c1cc2c(n1C(C)C)C(c1ccc(Cl)cc1)N(c1cc(Cl)c[nH]c1=O)C2=O (stereo not shown) [Example 123, 5-(5-Chloro-2-oxo-1,2-dihydro-pyridin-3-yl)-6-(4-chloro-phenyl)-2-(2-dimethylamino-4-methoxy-pyrimidin-5-yl)-1-isopropyl-5,6-dihydro-1H-pyrrolo[3,4-b]pyrrol-4-one]
The IC50 of the first is 3-fold higher: 0.316 nM for the first, 0.106 nM for the second.

Compared with COc1ccccc1-c1cc2c(n1C(C)C)C(c1ccc(Cl)cc1C)N(C1CCOCC1)C2=O (stereo not shown) [Example 104, 6-(4-Chloro-2-methyl-phenyl)-1-isopropyl-2-(2-methoxy-phenyl)-5-(tetrahydro-pyran-4-yl)-5,6-dihydro-1H-pyrrolo[3,4-b]pyrrol-4-one], COc1ncc(-c2cc3c(n2C(C)C)C(c2ccc(Cl)cc2)N(C2CCNCC2)C3=O)c(OC)n1 (stereo not shown) [Example 106, 6-(4-Chloro-phenyl)-2-(2,4-dimethoxy-pyrimidin-5-yl)-1-isopropyl-5-piperidin-4-yl-5,6-dihydro-1H-pyrrolo[3,4-b]pyrrol-4-one] is 59-fold higher in IC50: 15.3 nM for the first, 904 nM for the second. The first is the more potent here.

Going from COc1ncc(-c2cc3c(n2C(C)C)C(c2ccc(Cl)cc2)N(C2CCC(=O)N(C)C2)C3=O)c(OC)n1 (stereo not shown) [Example 109, 6-(4-Chloro-phenyl)-2-(2,4-dimethoxy-pyrimidin-5-yl)-1-isopropyl-5-(1-methyl-6-oxo-piperidin-3-yl)-5,6-dihydro-1H-pyrrolo[3,4-b]pyrrol-4-one] to COc1ncc(-c2cc3c(n2C(C)C)C(c2ccc(Cl)cc2)N(C2CN(C)C(=O)N(C)C2)C3=O)c(OC)n1 (stereo not shown) [Example 110, 6-(4-Chloro-phenyl)-2-(2,4-dimethoxy-pyrimidin-5-yl)-5-(1,3-dimethyl-2-oxo-hexahydro-pyrimidin-5-yl)-1-isopropyl-5,6-dihydro-1H-pyrrolo[3,4-b]pyrrol-4-one], the IC50 falls from 1.6 nM to 0.741 nM (2.2-fold). The second is the more potent here.

Compared with COc1ncc(-c2cc3c(n2C(C)C)C(c2ccc(Cl)cc2)N(c2cn(C)c(=O)cc2C)C3=O)c(OC)n1 (stereo not shown) [Example 111, 6-(4-Chloro-phenyl)-2-(2,4-dimethoxy-pyrimidin-5-yl)-5-(1,4-dimethyl-6-oxo-1,6-dihydro-pyridin-3-yl)-1-isopropyl-5,6-dihydro-1H-pyrrolo[3,4-b]pyrrol-4-one], COc1nc(N(C)C)ncc1-c1cc2c(n1C(C)C)C(c1ccc(Cl)cc1)N(c1cn(C)c(=O)cc1C)C2=O (stereo not shown) [Example 112, 6-(4-Chloro-phenyl)-2-(2-dimethylamino-4-methoxy-pyrimidin-5-yl)-5-(1,4-dimethyl-6-oxo-1,6-dihydro-pyridin-3-yl)-1-isopropyl-5,6-dihydro-1H-pyrrolo[3,4-b]pyrrol-4-one] is 4.7-fold lower in IC50: 1.84 nM for the first, 0.393 nM for the second. The second is the more potent here.

COc1cccnc1-c1cc2c(n1C(C)C)C(c1ccc(Cl)cc1)N(c1cc(Cl)ccc1C)C2=O (stereo not shown) [Example 113, 5-(5-Chloro-2-methyl-phenyl)-6-(4-chloro-phenyl)-1-isopropyl-2-(3-methoxy-pyridin-2-yl)-5,6-dihydro-1H-pyrrolo[3,4-b]pyrrol-4-one] and COc1ccc(S(C)(=O)=O)cc1-c1cc2c(n1C(C)C)C(c1ccc(Cl)cc1)N(c1cc(Cl)ccc1C)C2=O (stereo not shown) [Example 114, 5-(5-Chloro-2-methyl-phenyl)-6-(4-chloro-phenyl)-1-isopropyl-2-(5-methanesulfonyl-2-methoxy-phenyl)-5,6-dihydro-1H-pyrrolo[3,4-b]pyrrol-4-one] are within 1.5-fold of each other in IC50: 0.216 nM for the first, 0.184 nM for the second.

COc1ccccc1-c1c(F)c2c(n1C(C)C)C(c1ccc(Cl)cc1)N(c1cc(Cl)ccc1C)C2=O (stereo not shown) [Example 115, 5-(5-Chloro-2-methyl-phenyl)-6-(4-chloro-phenyl)-3-fluoro-1-isopropyl-2-(2-methoxy-phenyl)-5,6-dihydro-1H-pyrrolo[3,4-b]pyrrol-4-one] and COc1ccccc1-c1cc2c(n1C(C)C)C(C)(c1ccc(Cl)cc1)N(c1cc(Cl)ccc1C)C2=O (stereo not shown) [Example 116, 5-(5-Chloro-2-methyl-phenyl)-6-(4-chloro-phenyl)-1-isopropyl-2-(2-methoxy-phenyl)-6-methyl-5,6-dihydro-1H-pyrrolo[3,4-b]pyrrol-4-one] are within 1.5-fold of each other in IC50: 0.485 nM for the first, 0.496 nM for the second.

First: COc1ncc(-c2cc3c(n2C(C)C)C(C)(c2ccc(Cl)cc2)N(c2cc(Cl)c(=O)n(C)c2)C3=O)c(OC)n1 (stereo not shown) [Example 117, 5-(5-Chloro-1-methyl-6-oxo-1,6-dihydro-pyridin-3-yl)-6-(4-chloro-phenyl)-2-(2,4-dimethoxy-pyrimidin-5-yl)-1-isopropyl-6-methyl-5,6-dihydro-1H-pyrrolo[3,4-b]pyrrol-4-one]
Second: COc1ncc(-c2cc3c(n2C(C)C)[C@@H](c2ccc(Cl)cc2)N(c2cc(Cl)c(=O)n(C)c2)C3=O)c(OC)n1 [Example 122, (R)-5-(5-Chloro-1-methyl-6-oxo-1,6-dihydro-pyridin-3-yl)-6-(4-chloro-phenyl)-2-(2,4-dimethoxy-pyrimidin-5-yl)-1-isopropyl-5,6-dihydro-1H-pyrrolo[3,4-b]pyrrol-4-one]
The IC50 of the first is 370-fold lower: 0.208 nM for the first, 76.9 nM for the second. The first is the more potent here.

Going from COc1ccc(CC(=O)O)cc1-c1cc2c(n1C(C)C)C(c1ccc(Cl)cc1)N(c1cc(Cl)c(=O)n(C)c1)C2=O (stereo not shown) [Example 118, {3-[5-(5-Chloro-1-methyl-6-oxo-1,6-dihydro-pyridin-3-yl)-6-(4-chloro-phenyl)-1-isopropyl-4-oxo-1,4,5,6-tetrahydro-pyrrolo[3,4-b]pyrrol-2-yl]-4-methoxy-phenyl}-acetic acid] to COc1ccc(S(C)(=O)=O)cc1-c1cc2c(n1C(C)C)C(c1ccc(Cl)cc1)N(c1cc(Cl)c(=O)n(C)c1)C2=O (stereo not shown) [Example 119, 5-(5-Chloro-1-methyl-6-oxo-1,6-dihydro-pyridin-3-yl)-6-(4-chloro-phenyl)-1-isopropyl-2-(5-methanesulfonyl-2-methoxy-phenyl)-5,6-dihydro-1H-pyrrolo[3,4-b]pyrrol-4-one], the IC50 falls from 0.311 nM to 0.168 nM (1.9-fold).

Compared with COc1ncc(-c2c(C#N)c3c(n2C(C)C)C(c2ccc(Cl)cc2)N(c2cc(Cl)c(=O)n(C)c2)C3=O)c(OC)n1 (stereo not shown) [Example 120, 5-(5-Chloro-1-methyl-6-oxo-1,6-dihydro-pyridin-3-yl)-6-(4-chloro-phenyl)-2-(2,4-dimethoxy-pyrimidin-5-yl)-1-isopropyl-4-oxo-1,4,5,6-tetrahydro-pyrrolo[3,4-b]pyrrole-3-carbonitrile], COc1ncc(-c2cc3c(n2C(C)C)C(c2ccc(C#N)cc2)N(c2cc(Cl)c[nH]c2=O)C3=O)c(OC)n1 (stereo not shown) [Example 126, 4-[5-(5-Chloro-2-oxo-1,2-dihydro-pyridin-3-yl)-2-(2,4-dimethoxy-pyrimidin-5-yl)-1-isopropyl-4-oxo-1,4,5,6-tetrahydro-pyrrolo[3,4-b]pyrrol-6-yl]-benzonitrile] is 4.7-fold higher in IC50: 0.167 nM for the first, 0.779 nM for the second. The first is the more potent here.

Compared with CNc1ncc(-c2cc3c(n2C(C)C)C(c2ccc(Cl)cc2)N(c2cc(Cl)c[nH]c2=O)C3=O)c(OC)n1 (stereo not shown) [Example 124, 5-(5-Chloro-2-oxo-1,2-dihydro-pyridin-3-yl)-6-(4-chloro-phenyl)-1-isopropyl-2-(4-methoxy-2-methylamino-pyrimidin-5-yl)-5,6-dihydro-1H-pyrrolo[3,4-b]pyrrol-4-one], CNc1ncc(-c2cc3c(n2C(C)C)C(c2ccc(C#N)cc2)N(c2cc(Cl)c[nH]c2=O)C3=O)c(OC)n1 (stereo not shown) [Example 128, 4-[5-(5-Chloro-2-oxo-1,2-dihydro-pyridin-3-yl)-1-isopropyl-2-(4-methoxy-2-methylamino-pyrimidin-5-yl)-4-oxo-1,4,5,6-tetrahydro-pyrrolo[3,4-b]pyrrol-6-yl]-benzonitrile] is 2.8-fold higher in IC50: 0.185 nM for the first, 0.527 nM for the second.

First: COc1nc(N)ncc1-c1cc2c(n1C(C)C)C(c1ccc(C#N)cc1)N(c1cc(Cl)c[nH]c1=O)C2=O (stereo not shown) [Example 125, 4-[2-(2-Amino-4-methoxy-pyrimidin-5-yl)-5-(5-chloro-2-oxo-1,2-dihydro-pyridin-3-yl)-1-isopropyl-4-oxo-1,4,5,6-tetrahydro-pyrrolo[3,4-b]pyrrol-6-yl]-benzonitrile]
Second: COc1nc(N(C)C)ncc1-c1cc2c(n1C(C)C)C(c1ccc(C#N)cc1)N(c1cc(Cl)c[nH]c1=O)C2=O (stereo not shown) [Example 127, 4-[5-(5-Chloro-2-oxo-1,2-dihydro-pyridin-3-yl)-2-(2-dimethylamino-4-methoxy-pyrimidin-5-yl)-1-isopropyl-4-oxo-1,4,5,6-tetrahydro-pyrrolo[3,4-b]pyrrol-6-yl]-benzonitrile]
The IC50 of the first is 9-fold higher: 3.22 nM for the first, 0.359 nM for the second.

COc1nc(N)ncc1-c1cc2c(n1C(C)C)C(c1ccc(C#N)cc1)N(c1cc(Cl)cn(C)c1=O)C2=O (stereo not shown) [Example 129, 4-[2-(2-Amino-4-methoxy-pyrimidin-5-yl)-5-(5-chloro-1-methyl-2-oxo-1,2-dihydro-pyridin-3-yl)-1-isopropyl-4-oxo-1,4,5,6-tetrahydro-pyrrolo[3,4-b]pyrrol-6-yl]-benzonitrile] was tested, and the IC50 was 5.66 nM.
